The values below come from ChEMBL document CHEMBL1201862, “PubChem BioAssay data set” (2004).

The structures appear in SMILES notation.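 Step 1: Grow cells in 96-well plates. Step 2: Expose to compound for 48 hours at 5 concentrations. Step 3: Interpolate endpoints linearly; if unreached, use highest concentration. GI50 = concentration required for 50% inhibition of growth.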 Activity calls are given as the source filed them. Rule as the data show it: active = GI50 up to about 1.1 µM and inactive = higher.

Test systems include U-251; SK-MEL-2; TK-10; Malme-3M; SNB-19; NCI-H522; HOP-62; UO-31; SF-539; HCT-116; MCF7; HCC 2998; SK-MEL-5; HL-60; NCI-H23; A498; HT-29; SF-295; SNB-75; NCI-H460.
Test in all cases: growth of human tumour cells (NCI), 48 h

Consider `COC(=O)c1onc(C2OC(C)(C)OC2C(O)COC(c2ccccc2)(c2ccccc2)c2ccccc2)c1C(=O)OC` (stereo unspecified), for which the GI50 is > 100 µM (inactive) in the assay with U-251; > 100 µM (inactive) in the assay on SK-MEL-2; > 100 µM (inactive) in the assay on TK-10; > 100 µM (inactive) with Malme-3M; > 100 µM (inactive) in the assay with SNB-19; 65.8 µM (inactive) in the assay with NCI-H522. For the same molecule, the GI50 with HOP-62, with UO-31, in the assay on SF-539, in the assay on HCT-116, in the assay on MCF7 and in the assay with HCC 2998 was > 100 µM (inactive) in each case. The GI50 was > 100 µM (inactive) with SK-MEL-5; > 100 µM (inactive) in the assay with HL-60; 72.3 µM (inactive) in the assay on NCI-H23; > 100 µM (inactive) in the assay on A498; > 100 µM (inactive) with HT-29.
As for `CCCCC[C@H](O)[C@H](C)C=C1SCCCS1`, the GI50 with U-251, in the assay with SK-MEL-2, in the assay with TK-10, in the assay on Malme-3M, with SNB-19 and with NCI-H522 was > 100 µM (inactive) throughout. The GI50 in the assay on HOP-62, in the assay on SF-295, in the assay with UO-31, in the assay on HCT-116, with MCF7 and with SNB-75 was > 100 µM (inactive) each time. Further, the GI50 in the assay on HCC 2998, in the assay with SK-MEL-5, with HL-60, with NCI-H23, in the assay with A498 and with HT-29 was > 100 µM (inactive) throughout.
As for `CSc1nc(=S)[nH]c2c1c(C)nn2-c1ccccc1`, the GI50 in the assay with U-251 is 29.4 µM (inactive); in the assay on SK-MEL-2, 22.8 µM (inactive); in the assay on TK-10 it was 24.4 µM (inactive); in the assay with Malme-3M it was 17.1 µM (inactive); in the assay on SNB-19 it was 23.3 µM (inactive); with NCI-H522 it was 19.1 µM (inactive). Moreover, the GI50 in the assay with HOP-62 is 41.7 µM (inactive); with SF-295, 22.9 µM (inactive); in the assay with UO-31, 22 µM (inactive); in the assay on SF-539, 28.1 µM (inactive); in the assay with HCT-116 it was 17.8 µM (inactive); in the assay with NCI-H460, 10.2 µM (inactive). Besides, the GI50 in the assay on MCF7 was 17.8 µM (inactive); in the assay with HCC 2998 it was 30.6 µM (inactive); in the assay on SK-MEL-5 it was 13.1 µM (inactive); in the assay on HL-60, 28.1 µM (inactive); in the assay on NCI-H23 it was 17.6 µM (inactive); in the assay with A498, 30.5 µM (inactive). The GI50 in the assay on HT-29 is 28.5 µM (inactive).
Consider `C#CCOCn1ccc(=O)[nH]c1=O`, for which the GI50 with U-251, in the assay on SK-MEL-2, in the assay on TK-10, with Malme-3M, in the assay on SNB-19 and in the assay on HOP-62 was > 100 µM (inactive) in each case. The GI50 with SF-295, in the assay on UO-31, in the assay with SF-539, with HCT-116, in the assay on NCI-H460 and in the assay with MCF7 was > 100 µM (inactive) each time. Besides, the GI50 in the assay on SNB-75, in the assay with HCC 2998, with SK-MEL-5, in the assay on HL-60, in the assay with NCI-H23 and with A498 was > 100 µM (inactive) throughout. Further, the GI50 with HT-29 is > 100 µM (inactive).
With `CC[C@H]1C=CCC[C@@]2(C[C@@H]3CC[C@H]4[C@H](C(=O)OCCCCCCCCCCCCCCCC(=O)N(CCCN)C[C@@H](O)CCN)[C@]5(CCC[C@@H](C)O5)NC(=[N+]34)N2)O1`, the GI50 is 0.378 µM (active) in the assay on U-251; 0.53 µM (active) in the assay with SK-MEL-2; 1.46 µM (inactive) with TK-10; 0.196 µM (active) in the assay on Malme-3M; 1.21 µM (inactive) in the assay on SNB-19; 1.04 µM (active) with NCI-H522. The GI50 was 1.26 µM (inactive) in the assay with HOP-62; 1.63 µM (inactive) with SF-295; 0.471 µM (active) in the assay on UO-31; 1.49 µM (inactive) in the assay on SF-539; 0.344 µM (active) in the assay with HCT-116; 0.52 µM (active) with NCI-H460. In addition, the GI50 is 0.421 µM (active) in the assay with MCF7; 0.575 µM (active) in the assay with HCC 2998; 0.268 µM (active) in the assay with SK-MEL-5; 0.345 µM (active) in the assay with HL-60; 1.34 µM (inactive) in the assay on NCI-H23; 1.45 µM (inactive) in the assay with A498. In addition, the GI50 in the assay on HT-29 was 0.387 µM (active).
For the molecule `CC(=O)c1cc2c(s1)C(=O)c1sccc1C2=O`, the GI50 in the assay with U-251 is 0.017 µM (active); in the assay on SK-MEL-2, 0.076 µM (active); in the assay with TK-10, 0.212 µM (active); in the assay on Malme-3M it was 0.0163 µM (active); in the assay on SNB-19, 0.0766 µM (active); in the assay on NCI-H522 it was 0.0175 µM (active). Further, the GI50 in the assay with HOP-62 is 0.0434 µM (active); in the assay with SF-295, 0.04 µM (active); in the assay on UO-31, 0.0314 µM (active); in the assay with SF-539 it was 0.0181 µM (active); in the assay on HCT-116, 0.0698 µM (active); in the assay on NCI-H460 it was 0.0908 µM (active). The GI50 with MCF7 was 0.0301 µM (active); with SNB-75, 0.0204 µM (active); in the assay on HCC 2998, 0.218 µM (active); with SK-MEL-5 it was < 0.0113 µM (active); in the assay on NCI-H23, 0.0184 µM (active); in the assay on A498, 1.26 µM (inactive). For the same molecule, the GI50 in the assay on HT-29 is 0.202 µM (active).
Take `CC(=O)N1CCn2c1nc1cc(Cl)ccc12`: the GI50 in the assay with U-251 was 37.8 µM (inactive); in the assay on SK-MEL-2 it was 26.1 µM (inactive); in the assay with TK-10 it was 63.1 µM (inactive); in the assay on Malme-3M, > 100 µM (inactive); with SNB-19 it was 69 µM (inactive); in the assay with NCI-H522, 42.5 µM (inactive). Moreover, the GI50 is 19.4 µM (inactive) with HOP-62; 47.8 µM (inactive) with SF-295; 26.4 µM (inactive) with SF-539; 44 µM (inactive) in the assay on HCT-116; 77.6 µM (inactive) with NCI-H460; > 100 µM (inactive) in the assay on MCF7. In addition, the GI50 in the assay on HCC 2998, in the assay with SK-MEL-5, in the assay with HL-60, in the assay on A498 and in the assay with HT-29 was > 100 µM (inactive) in each case.
On to `CCCCCC#CCOC(=O)C(=[N+]=[N-])P(=O)(c1ccccc1)c1ccccc1`, for which the GI50 with U-251, in the assay with TK-10, with Malme-3M, in the assay on SNB-19, in the assay with HOP-62 and with SF-295 was > 10 µM (inactive) each time. Further, the GI50 in the assay with UO-31 was > 10 µM (inactive); in the assay with SF-539, > 10 µM (inactive); in the assay on HCT-116, 8.26 µM (inactive); in the assay on NCI-H460, > 10 µM (inactive); in the assay on MCF7, > 10 µM (inactive); in the assay with SNB-75, > 10 µM (inactive). For the same molecule, the GI50 in the assay on HCC 2998, with SK-MEL-5, with HL-60, with NCI-H23, in the assay with A498 and in the assay on HT-29 was > 10 µM (inactive) in each case.
